We go through one molecule from BindingDB's records for doi:10.1021/jm0204441 (The Danish University of Pharmaceutical Sciences, 2003).

pEC50: −log10 of the molar value.

The assay can be described thus: Electrophysiological data on Xenopus oocytes, expressing homomeric kainate receptor (GluR5).

As a reminder, the pEC50 is the negative decadic logarithm of the EC50, by convention in mol/L. `CC(C)(C)c1s[nH]c(=O)c1C[C@H](N)C(=O)O` [2-Amino-3-(5-tert-butyl-3-hydroxy-isothiazol-4-yl)-propionic acid] showed a negative logarithm of the EC50 (pEC50) of 7.00.
